Measured values from patent publication US20260234115A1, “LIPID COMPOUNDS, COMPOSITIONS, AND USES THEREOF” (Liberate Bio, Inc., priority 2023, published 2026).
Marks after values point to notes of the source that are not given here.

Key:
[1] = Dynamic light scattering: LNP particle size and PDI; format: physicochemical; details: for PDI N/P:6 / Size (nm) N/P:6: LNP
Description: (§1) Lipids and active ingredients (e.g., RNA, DNA, etc.) were assembled into LNPs using microfluidic mixing. An ethanol phase was prepared by solubilizing ionizable lipids (i.e., lipid compounds), phospholipids (e.g., DSPC), cholesterol, and PEG lipids in ethanol, at predetermined mol % ratios given in Table 2. An aqueous phase was prepared by diluting a nucleic acid cargo (e.g., firefly luciferase mRNA) in an acidified buffer (pH 4.0 citrate buffer, 50 mM). A chip with microfluidic mixing architecture (e.g., toroidal mixer) was used to mix the two phases at predetermined flow rate ratios (e.g., 9 ml/min for the aqueous phase and 3 ml/min for the ethanol phase). Resulting LNPs comprising the lipids and encapsulating the nucleic acid cargo were dialyzed against PBS pH 7.4 for 2 hours at room temperature in a 20 kDa MWCO dialysis membrane. Then, PBS was refreshed to continue dialysis overnight at 2-8 TC. Upon completion of the buffer exchange, LNPs were optionally concentrated using a ultracentrifugal unit with a 10-100 kDa MWCO membrane.
d. Dynamic Light Scattering
LNPs were diluted with PBS pH 7.4 to predetermined dilution ranges based on the process step and LNP concentration. Following mixing, the particle size and PDI were measured by a dynamic light scattering instrument.

[2] = test system: mouse organs; experiment: In vivo activity screening in mice: organ mean total flux (p/s) of luciferase activity after injection of F2 LNP pools (Table 6, FIG. 7A-7C); details: luciferase mRNA
Summary of the method: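 C57BL/6J mice given one tail-vein injection of pooled Formulation F2 LNPs carrying firefly luciferase mRNA (0.25-3 mg/kg) in PBS. At 4-6 h, s.c. D-luciferin given; organs imaged ex vivo by IVIS within 10-15 min, after saline cardiac perfusion. Mean total flux (p/s) per organ ROI.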

[3] = Plate-based fluorescence (RiboGreen) assay: nucleic acid cargo content and encapsulation efficiency of LNPs; format: physicochemical; details: for EE (%) N/P:6: LNP
Description: as §1
c. Plate-Based Fluorescence (RiboGreen) Assay
Nucleic acid cargos in the LNPs were quantified by RiboGreen assay, against a nucleic acid standard curve. LNPs encapsulating nucleic acid cargo were mixed with 1× Tris-EDTA (TE) and 2% triton in TE, separately, to achieve dilutions required by the assay. Then, the samples were heated at 30° C. and vortexed at 300 rpm. Samples were plated into 96-well plates and RiboGreen reagent was added into each well. Following incubation in the dark, fluorescence was measured from the wells, and plotted against the standard curve. Nucleic acid concentration obtained from the Triton-treated samples were used for total cargo concentration quantification. Only TE diluted sample fluorescence values were used to determine the non-encapsulated (free) cargo, and their ratio was used to determine the encapsulation efficiency (EE %).

[4] = LNP compositions for Formulation F2 Study
[5] = LNP compositions for in vivo mouse study, four formulations (F1-F4) of the lipid compound pooled, or pools of four compounds (sixteen compositions)
[6] = LNP compositions for in vivo mouse study, four formulations (F1-F4) pooled, or pools of four compounds

SMILES | Particle Size (nm) [1, 5] [nm] | PDI [1, 6] | PDI N/P:6 ([1]; Formulation F1, N/P 6) | Size (nm) N/P:6 ([1]; Formulation F1, N/P 6) [nm] | PDI N/P:6 ([1]; Formulation F2, N/P 6) | Size (nm) N/P:6 ([1]; Formulation F2, N/P 6) [nm] | PDI N/P:6 ([1]; Formulation F3, N/P 6) | Size (nm) N/P:6 ([1]; Formulation F3, N/P 6) [nm] | PDI N/P:6 ([1]; Formulation F4, N/P 6) | Size (nm) N/P:6 ([1]; Formulation F4, N/P 6) [nm] | Organ Mean Total Flux Femur ([2]; Mouse 1, dose 0.3 mg/kg) | Organ Mean Total Flux Heart ([2]; Mouse 1, dose 0.3 mg/kg) | Organ Mean Total Flux Kidney ([2]; Mouse 1, dose 0.3 mg/kg) | Organ Mean Total Flux Liver ([2]; Mouse 1, dose 0.3 mg/kg) | Organ Mean Total Flux Lung ([2]; Mouse 1, dose 0.3 mg/kg) | Organ Mean Total Flux Muscle ([2]; Mouse 1, dose 0.3 mg/kg) | Organ Mean Total Flux Pancreas ([2]; Mouse 1, dose 0.3 mg/kg) | Organ Mean Total Flux Spleen ([2]; Mouse 1, dose 0.3 mg/kg) | EE % [3, 6] [%] | mRNA Content [3, 6] [µg/mL] | also measured
CCCCC/C=C\CCOC(=O)CCCCCC(=O)OCC(COC(=O)CCCCCC(=O)OCC/C=C\CCCCC)(COC(=O)CCCCCC(=O)OCC/C=C\CCCCC)COC(=O)CCC(CCCCCC)OC(=O)NCCN1CCCC1 (stereo not shown) [Compound 7, O7-[2,2-bis[[7-[(Z)-non-3-enoxy]-7-oxo-heptanoyl]oxymethyl]-3-[4-(2-pyrrolidin-1-ylethylcarbamoyloxy)decanoyloxy]propyl]O1-[(Z)-non-3-enyl]heptanedioate] | 89.3 | 0.14 | 0.08 | 75 ± 1 | 0.11 | 97 ± 5 | 0.09 | 99 ± 2 | 0.21 | 75 ± 3 | 2.4 p/s (×10^6) | 0.2 p/s (×10^6) | 0.7 p/s (×10^6) | 140.0 p/s (×10^6) | 4.9 p/s (×10^6) | 2.5 p/s (×10^6) | 1.8 p/s (×10^6) | 29.0 p/s (×10^6) | 96 | 84 | PDI [1, 4]: 0.086; Particle Size (nm) [1, 4]: 120.8 nm; Organ Mean Total Flux Femur ([2]; Mouse 14, dose 0.5 mg/kg): 5.7 p/s (×10^6); Organ Mean Total Flux Heart ([2]; Mouse 14, dose 0.5 mg/kg): 0.9 p/s (×10^6); Organ Mean Total Flux Kidney ([2]; Mouse 14, dose 0.5 mg/kg): 3.2 p/s (×10^6); Organ Mean Total Flux Liver ([2]; Mouse 14, dose 0.5 mg/kg): 338.0 p/s (×10^6); Organ Mean Total Flux Lung ([2]; Mouse 14, dose 0.5 mg/kg): 14.5 p/s (×10^6); Organ Mean Total Flux Muscle ([2]; Mouse 14, dose 0.5 mg/kg): 48.2 p/s (×10^6); Organ Mean Total Flux Pancreas ([2]; Mouse 14, dose 0.5 mg/kg): 1.5 p/s (×10^6); Organ Mean Total Flux Spleen ([2]; Mouse 14, dose 0.5 mg/kg): 11.8 p/s (×10^6); EE % [3, 4]: 98%; EE (%) N/P:6 ([3]; Formulation F1, N/P 6): 99%; EE (%) N/P:6 ([3]; Formulation F2, N/P 6): 97%; EE (%) N/P:6 ([3]; Formulation F3, N/P 6): 98%; EE (%) N/P:6 ([3]; Formulation F4, N/P 6): 98%
CCCCC/C=C\CCOC(=O)CCCCCC(=O)OCC(COC(=O)CCCCCC(=O)OCC/C=C\CCCCC)(COC(=O)CCC(CCCCCC)OC(=O)NCCN1CCCC1)COC(=O)CC12CC3CC(CC(C3)C1)C2 (stereo not shown) [Compound 8, O7-[2-[[2-(1-adamantyl)acetyl]oxymethyl]-2-[[7-[(Z)-non-3-enoxy]-7-oxo-heptanoyl]oxymethyl]-3-[4-(2-pyrrolidin-1-ylethylcarbamoyloxy)decanoyloxy]propyl]O1-[(Z)-non-3-enyl]heptanedioate] | 101 | 0.07 | 0.08 | 87 ± 6 | 0.06 | 117 ± 4 | 0.12 | 100 ± 2 | 0.19 | 79 ± 1 | 11.1 p/s (×10^6) | 2.8 p/s (×10^6) | 0.8 p/s (×10^6) | 72.4 p/s (×10^6) | 20.1 p/s (×10^6) | 22.7 p/s (×10^6) | 4.4 p/s (×10^6) | 10.7 p/s (×10^6) | 97 | 108 | PDI [1, 4]: 0.071; Particle Size (nm) [1, 4]: 119 nm; Organ Mean Total Flux Femur ([2]; Mouse 14, dose 0.5 mg/kg): 9.8 p/s (×10^6); Organ Mean Total Flux Heart ([2]; Mouse 14, dose 0.5 mg/kg): 2.2 p/s (×10^6); Organ Mean Total Flux Kidney ([2]; Mouse 14, dose 0.5 mg/kg): 3.6 p/s (×10^6); Organ Mean Total Flux Liver ([2]; Mouse 14, dose 0.5 mg/kg): 257.0 p/s (×10^6); Organ Mean Total Flux Lung ([2]; Mouse 14, dose 0.5 mg/kg): 6.4 p/s (×10^6); Organ Mean Total Flux Muscle ([2]; Mouse 14, dose 0.5 mg/kg): 46.9 p/s (×10^6); Organ Mean Total Flux Pancreas ([2]; Mouse 14, dose 0.5 mg/kg): 4.0 p/s (×10^6); Organ Mean Total Flux Spleen ([2]; Mouse 14, dose 0.5 mg/kg): 10.4 p/s (×10^6); EE % [3, 4]: 98%; EE (%) N/P:6 ([3]; Formulation F1, N/P 6): 100%; EE (%) N/P:6 ([3]; Formulation F2, N/P 6): 99%; EE (%) N/P:6 ([3]; Formulation F3, N/P 6): 95%; EE (%) N/P:6 ([3]; Formulation F4, N/P 6): 99%
CCCCC/C=C\CCOC(=O)CCCCCC(=O)OCC(COC(=O)CCCCCC(=O)OCC/C=C\CCCCC)(COC(=O)CCC(CCCCCC)OC(=O)NCCN1CCCC1)COC(=O)CCC(OCCCCCCCC)OCCCCCCCC (stereo not shown) [Compound 9, O7-[2-(4,4-dioctoxybutanoyloxymethyl)-2-[[7-[(Z)-non-3-enoxy]-7-oxo-heptanoyl]oxymethyl]-3-[4-(2-pyrrolidin-1ylethylcarbamoyloxy)decanoyloxy]propyl]O1-[(Z)-non-3-enyl]heptanedioate] | 79 | 0.07 | 0.07 | 68 ± 2 | 0.03 | 76 ± 1 | 0.03 | 92 ± 2 | 0.13 | 63 ± 1 | 7.6 p/s (×10^6) | 1.4 p/s (×10^6) | 3.4 p/s (×10^6) | 3583 p/s (×10^6) | 29.8 p/s (×10^6) | 8.3 p/s (×10^6) | 6.7 p/s (×10^6) | 32.5 p/s (×10^6) | 97 | 102 | EE (%) N/P:6 ([3]; Formulation F1, N/P 6): 100%; EE (%) N/P:6 ([3]; Formulation F2, N/P 6): 100%; EE (%) N/P:6 ([3]; Formulation F3, N/P 6): 99%; EE (%) N/P:6 ([3]; Formulation F4, N/P 6): 99%
